The text below walks through data of PubChem BioAssay AID1996.

Usually kinetic solubility stands for the concentration staying in solution when a stock, usually in DMSO, is diluted into the medium.

Structures are written as SMILES. Values after ≈ are worked out from the molar mass of the structure shown.

For this series the following is noted: buffer; pH 7.4; 200.0 µM.
`O=C(Nc1nc(-c2ccc(F)c(F)c2)cs1)Nc1ccc(F)cc1F`: the solubility (kinetic) was less than 0.3 µg/mL.

As to `CCOc1ccc(CC(=O)Nc2nccs2)cc1`, the solubility (kinetic) amounted to 7.7 µg/mL (≈ 29.4 µM). Then `COCc1c(CCl)cnc(C)c1O`, with greater than 30.2 µg/mL; and `Cc1cccc(C)c1N=C1C(=O)Nc2ccccc21`, with 31.2 µg/mL (≈ 125 µM).

Compound `COCCNC(=O)C(=O)NNC(=O)CCc1ccccc1` displayed a solubility (kinetic) greater than 44 µg/mL. On to `CC(=O)Nc1ccc(S(=O)(=O)Nc2nc3ccccc3nc2N2CCOCC2)cc1`, for which the solubility (kinetic) is greater than 64.1 µg/mL. Next, `C=CCn1c(O)c(C=NCCN2CCOCC2)c(=O)[nH]c1=S`: greater than 48.7 µg/mL; `CC1CCCC(C)N1C(=O)COC(=O)c1ccccc1O` (stereo not drawn): 42.3 µg/mL (≈ 145 µM); `CC(Oc1ccc(Br)cc1Br)C(=O)Nc1cccnc1Cl` (stereo not drawn): less than 0.5 µg/mL. Next, `O=C(c1cc2cc(F)ccc2[nH]1)N1CCN(c2cccc(Cl)c2)CC1`: 0.5 µg/mL (≈ 1.4 µM). Then `Cc1ccc(SCC(=O)NCc2ccccc2C)cc1`, with 35.7 µg/mL (≈ 125 µM).

Consider `COc1ccccc1OCC#CCSc1ncccn1`, for which the solubility (kinetic) is greater than 43 µg/mL.

With `Cl.NCCC(=O)N1c2ccccc2Sc2ccc(Cl)cc21`, the solubility (kinetic) amounted to 33.7 µg/mL. In turn, `O=C(NC1CCCCNC1=O)c1ccco1` (stereo not drawn) had a solubility (kinetic) greater than 33.3 µg/mL. Next, `COC(=O)c1ccccc1N=Nc1c(N)n[nH]c1N`: greater than 39 µg/mL; `Cc1ccc(S(=O)(=O)NCCC(=O)Oc2ccc3ccc(=O)oc3c2)cc1`: 25.5 µg/mL (≈ 65.8 µM); `Cc1cc(C)cc(NC(=O)Nc2cccnc2)c1`: greater than 36.2 µg/mL. Then `Cl.O=C(NC12CC3CC(CC(C3)C1)C2)OCCNC1CCCCC1`, with greater than 53.5 µg/mL; and `COc1cccc(NC(=O)c2ccccc2Br)c1`, with greater than 45.9 µg/mL; and `CCN(CC)CCOCCOc1ccc(Cl)c2ccccc12`, with 32.2 µg/mL (≈ 100 µM). Take `COCCCNC(=O)CN1C(=O)c2cccc3cccc1c23`: the solubility (kinetic) is greater than 44.8 µg/mL. In turn, `CN1CCN(C(=O)c2ccc(Oc3ccc([N+](=O)[O-])cc3)cc2)CC1` had a solubility (kinetic) greater than 51.2 µg/mL. Next, `CCN1CCN(c2ccc(N)c(C)c2)CC1`: 28.7 µg/mL (≈ 131 µM). Then `CCN(CC)C(=O)CSc1nnc([C@@H](N)C(C)C)o1.Cl`, with greater than 48.4 µg/mL; and `CN(C)C(CNc1ncnc2ccccc12)c1c(F)cccc1Cl` (stereo not drawn), with 49.4 µg/mL (≈ 143 µM); and `Cc1cccc(C(=O)OCC(=O)N2CCCCCC2)c1C`, with greater than 43.4 µg/mL. Then `Cc1nc(NC(=O)CSc2nc(N)cc(N)n2)sc1C`, with greater than 46.6 µg/mL; and `Cn1c(=O)c2c(ncn2CC(=O)OCC(=O)Nc2ccc(F)cc2Cl)n(C)c1=O`, with greater than 63.6 µg/mL. In turn, `N#CCc1ccc(OC(=O)c2cnccc2C(F)(F)F)cc1` registered a solubility (kinetic) of 13.6 µg/mL (≈ 44.4 µM).

`COc1ccc(/C=N\Nc2ncc(F)c(N3CCOCC3)n2)cc1OC` came in with a kinetic solubility greater than 54.2 µg/mL. Then `O=C(CSc1cc(Cl)ccc1Cl)NC1CC1`, with 37.7 µg/mL (≈ 137 µM); and `COc1ccc(S(=O)(=O)N2CCOCC2)cc1NC(=O)CSc1nc(C)c(C)c(C)n1`, with 8.5 µg/mL (≈ 18.2 µM). For the compound `O=[N+]([O-])c1ccccc1S(=O)(=O)N1CCN(c2ccccc2)CC1`, the kinetic solubility was 7.2 µg/mL (≈ 20.7 µM).

As to `CCOC(=O)Cc1cc(=O)[nH]c(/N=C(\N)Nc2ccc(C)c(C)c2)n1`, the solubility (kinetic) was 2.1 µg/mL (≈ 6.12 µM). Against the preceding compound, the solubility kinetic is about 3.4-fold lower. With `Cc1c(C(=O)Cc2ccccc2)n(C)c2ccccc12`, the solubility (kinetic) is 2.5 µg/mL (≈ 9.49 µM). As for `COc1ccc(S(=O)(=O)N2CCC(C)CC2)cc1OC`, the kinetic solubility was 44.8 µg/mL (≈ 150 µM).

Compound `Cc1ccc(S(=O)(=O)[O-])cc1.Cn1cc[n+](C)c1COc1ccc(C=O)cc1` displayed a kinetic solubility greater than 60.4 µg/mL. Then `CCCc1cc(=O)[nH]c(SCC(=O)NC2CC2)n1`, with greater than 40.1 µg/mL. Next, `C=Cn1cc[n+](CC(=O)c2ccc(OC)cc2)c1.[Br-]`: 45.2 µg/mL; `CC1(C)CC2CC(C)(CN2/C=C2/CCCCC2=O)C1` (stereo not drawn): 22.6 µg/mL (≈ 86.5 µM).

The compound `Cc1cccnc1NC(=O)c1ccc(COc2ccccc2)o1` registered a kinetic solubility greater than 46.3 µg/mL. Then `O=C1CCCC(=O)C1C1c2ccccc2CCN1C(=O)CCl` (stereo not drawn), with greater than 48 µg/mL. Then `CCc1sc(C(=O)Nc2ccc(OC)c(S(=O)(=O)N3CCOCC3)c2)cc1C`, with 22.9 µg/mL (≈ 53.9 µM); and `CN(CC(=O)NC1CCCCCCC1)S(=O)(=O)c1cnc[nH]1`, with greater than 49.3 µg/mL. Then `COc1ccc(S(=O)(=O)N2CCCCC2)cc1NC(=O)c1[nH]c(C)c(C(C)=O)c1C`, with 3.2 µg/mL (≈ 7.38 µM); and `COc1ccccc1CC(=O)NCc1csc(-c2cccs2)n1`, with 46 µg/mL (≈ 134 µM). For `O=C(CN1C(=O)NC(c2ccccc2)(c2ccccc2)C1=O)N1CCCCC1`, the solubility (kinetic) was found to be 6.2 µg/mL (≈ 16.4 µM). Compared with the last compound, the solubility kinetic is about 7.4-fold lower. `COc1ccc(CNS(=O)(=O)NCc2ccccc2F)cc1` showed a kinetic solubility of 22.3 µg/mL (≈ 68.7 µM). In turn, `CCOc1cccc(C2CC(=O)Nc3cc(OC)c(OC)cc32)c1` (stereo not drawn) came in with a kinetic solubility of 12.5 µg/mL (≈ 38.2 µM). Next, `O=C(Cc1ccc([N+](=O)[O-])cc1)OCc1c(F)cccc1Cl`: less than 0.7 µg/mL; `CCOC(=O)c1sc(Nc2nc(C)cc(OC)n2)nc1C`: 5.1 µg/mL (≈ 16.5 µM). Next, `O=C(COc1ncnc2cc(Cl)ccc12)c1ccc2c(c1)OCCO2`: less than 0.4 µg/mL. Then `O=C(COC(=O)C12CC3CC(CC(C3)C1)C2)Nc1ccc2[nH]c(=O)[nH]c2c1`, with 1.3 µg/mL (≈ 3.52 µM); and `COc1ccc(CNC(=O)Cc2cn(C)c3ccccc23)c(OC)c1`, with greater than 50.8 µg/mL. Compound `Cc1ccc(C(=O)Nc2ccc3c(c2)OCCO3)cc1` gave a kinetic solubility of 40.4 µg/mL (≈ 150 µM). Then `CCC1CN(C(=O)NCc2cccc(OC)c2)c2ccccc2O1` (stereo not drawn), with 43.3 µg/mL (≈ 133 µM); and `CC(=O)N1c2ccccc2CCc2ccc(N)cc21.Cl`, with greater than 43.3 µg/mL. `O=C1NC(=O)N(Cc2ccccc2)C(=O)/C1=C/C=C/c1ccco1` yielded a solubility (kinetic) of 8.8 µg/mL (≈ 27.3 µM). Consider `O=C(O)/C=C/C(=O)NCCCc1ccccc1`, for which the solubility (kinetic) was 19.8 µg/mL (≈ 84.9 µM). With `O=C(c1cccc([N+](=O)[O-])c1)N1CCN(Cc2ccccc2)CC1`, the kinetic solubility is greater than 48.8 µg/mL. Next, `COc1ccc(C(=O)NCCNc2ccc([N+](=O)[O-])cc2)cc1OC`: 1.7 µg/mL (≈ 4.92 µM); `COc1ccccc1CN(C)C(=O)CNC(=O)c1cccc(Cl)c1`: 50.8 µg/mL (≈ 146 µM).

Compound `O=C(COC(=O)c1cccnc1Cl)NC1CCCCCC1` displayed a kinetic solubility greater than 46.6 µg/mL.

The compound `CCOc1ccc(S(=O)(=O)N2CCNC(=O)C2)cc1` had a kinetic solubility greater than 42.6 µg/mL. Regarding `COc1cc(CN2CCN(CC3CC3)CC2CCO)cc(OC)c1` (stereo not drawn), the solubility (kinetic) is 42.6 µg/mL (≈ 127 µM). Compound `CCOC1(/N=C(\C)NS(=O)(=O)c2ccc(Cl)cc2)C(C)=CC(=O)C=C1C` yielded a kinetic solubility greater than 59.5 µg/mL.

For `Cl.NC(Cc1ccccc1)Cc1ccccc1`, the solubility (kinetic) was greater than 37.2 µg/mL. Next, `N#Cc1ccc(/C=C/C(=O)c2ccc3c(c2)OCO3)cc1`: 2.9 µg/mL (≈ 10.5 µM); `COC(=O)Cn1cnc2c(oc3ccccc32)c1=O`: greater than 38.7 µg/mL. Then `COc1cccc(C(=O)NNC(=O)CCC(=O)O)c1`, with greater than 39.9 µg/mL. Take `CC1CCC2(CC1)NC(=O)N(CC(=O)NC1CCCCC1C)C2=O` (stereo not drawn): the solubility (kinetic) is greater than 50.3 µg/mL.

`CN(Cc1ccccc1)C(=O)COc1ccc2ccccc2c1` gave a kinetic solubility of less than 0.7 µg/mL. Then `CCOc1cc(/C=C2\SC(N)=NC2=O)ccc1O`, with 22.5 µg/mL (≈ 85.1 µM); and `Cn1ccnc1SCC(=O)c1ccc(C#N)cc1`, with greater than 38.6 µg/mL; and `COc1cccc(N=C(N)N=C(N)N)c1`, with 25.6 µg/mL (≈ 124 µM). Then `Cc1ccc(CSCc2ccc(C(=O)NC3CCCC3)o2)cc1`, with 1.9 µg/mL (≈ 5.77 µM); and `Cc1cc(=O)[nH]c(SCC(=O)Nc2ccc(N3CCCCC3)cc2)n1`, with 28.5 µg/mL (≈ 79.5 µM). Then `O=C(Nc1ncccn1)c1cc(-c2ccc(F)cc2)nc2ccccc12`, with 44.5 µg/mL (≈ 129 µM); and `CSc1sc(C#N)c2c1/C(=N\O)CCC2`, with 1 µg/mL (≈ 4.2 µM). As to `O=C(COC(=O)/C=C/c1ccc([N+](=O)[O-])cc1)NCc1ccco1`, the solubility (kinetic) is 1.5 µg/mL (≈ 4.54 µM). Next, `CCC(C(=O)O)N1C(=O)C2CCCCC2C1=O` (stereo not drawn): greater than 35.9 µg/mL; `FC(F)(F)c1cnc(COc2cc(Cl)cc(Cl)c2)c(Cl)c1`: less than 0.8 µg/mL; `CC(=O)OC(C)C[N+](C)(C)C.[Cl-]` (stereo not drawn): greater than 29.4 µg/mL. Then `CCN(CC(=O)N1CCCCC1)S(=O)(=O)c1ccccc1`, with 42.4 µg/mL (≈ 137 µM); and `Cc1nc2ccccn2c1C(=O)NN=C1CCCC1`, with greater than 38.4 µg/mL; and `Cc1cccc(C(CC(=O)N2CCCCC2)c2ccccc2)c1O` (stereo not drawn), with 0.8 µg/mL (≈ 2.47 µM).

`Cc1cc(C)c(OCCNCc2ccccc2)c(C)c1.O=C(O)C(=O)O` returned a solubility (kinetic) of 42.5 µg/mL. As to `O=C(Nc1nccs1)c1cccc2ccccc12`, the solubility (kinetic) was 1.9 µg/mL (≈ 7.47 µM). Next, `CC(C)(C)NC(=O)COC(=O)c1c2c(nc3ccccc13)CCC2`: 35.8 µg/mL (≈ 110 µM); `O=C(O)c1ccccc1-c1ccccc1C(=O)NCCc1ccccc1`: 50.4 µg/mL (≈ 146 µM); `CCOC(=O)C(=O)N1CCN(c2ccccc2OC)CC1`: greater than 43.9 µg/mL. Then `CC1N(C(=O)N(C)C)CCN1S(=O)(=O)c1ccccc1` (stereo not drawn), with greater than 44.6 µg/mL; and `O=C(COC(=O)c1cc(S(=O)(=O)N2CCCC2)ccc1O)Nc1ccccc1Br`, with 9.6 µg/mL (≈ 19.9 µM); and `CC(=O)c1cccc(NC(=O)CNC(=O)Cc2ccccc2)c1`, with 43.7 µg/mL (≈ 141 µM). Next, `NS(=O)(=O)c1cc(C(=O)OC2CCOC2=O)ccc1Cl` (stereo not drawn): greater than 48 µg/mL; `CC(C)(C)CC(=O)NC(=S)NCc1ccco1`: 9.3 µg/mL (≈ 36.6 µM); `NC(=O)C1CCN(c2nc3ccccc3nc2NS(=O)(=O)c2ccc(Br)cc2)CC1`: 53.9 µg/mL (≈ 110 µM). Compound `N#Cc1ccccc1N/C=C/C(=O)c1ccc(Cl)cc1` displayed a solubility (kinetic) of 0.8 µg/mL (≈ 2.83 µM). Turning to `Cc1ncc(CN2CCC(CO)(CCOc3ccccc3)CC2)s1`, the solubility (kinetic) came out at 48.2 µg/mL (≈ 139 µM). Next, `O=C(Nc1ccc(Cl)cc1C(=O)N1CCCCC1)c1ccco1`: 46.6 µg/mL (≈ 140 µM); `COc1ccc(OC)c(Nc2nc(NCc3ccco3)nc(N)c2[N+](=O)[O-])c1`: less than 0.1 µg/mL. Then `Nc1nc(CCl)nc(Nc2ccc3ccccc3c2)n1`, with 29.3 µg/mL (≈ 103 µM). Next, `Cc1ccc(CN2C(=O)C(C)Oc3ccccc32)cc1` (stereo not drawn): 4.7 µg/mL (≈ 17.6 µM).
